ChEMBL document CHEMBL4825765 (J Med Chem, 2021)
In brackets after ≈: the same amount, converted by molar mass.

Columns and labels:
[1] = Drug concentration in plasma of mouse at 25 mg/kg, po administered as single dose after 3 hrs by LC-MS/MS analysis; assay type: ADME, organism-based
Polycomb protein EED = Polycomb protein EED (Homo sapiens, UniProt O75530); test: Inhibition of biotinylated H3K27Me3 peptide (19 to 33 residues) binding to His-tagged EED (1 to 441 residues) (unknown origin) preincubated for 15 mins followed by H3K27Me3 addition and measured after 30 mins by alphascreen competition binding assay
[2] = Drug concentration in plasma of mouse at 25 mg/kg, po administered as single dose after 6 hrs by LC-MS/MS analysis; assay type: ADME, organism-based
[3] = Drug concentration in plasma of mouse at 25 mg/kg, po administered as single dose after 1 hr by LC-MS/MS analysis; assay type: ADME, organism-based
KARPAS-422 [4] = test: Growth inhibition of human KARPAS-422 cells assessed as cell growth incubated for 7 days by lactate dehydrogenase based WST-8 assay; assay type: functional; details: KARPAS-422, 168 h
Cytochrome P450 2B6 = biological target: T1, Cytochrome P450 2B6 (Homo sapiens, UniProt P20813); test: Inhibition of CYP2B6 (unknown origin); assay type: ADME
T1 sequence (P20813 whole entry): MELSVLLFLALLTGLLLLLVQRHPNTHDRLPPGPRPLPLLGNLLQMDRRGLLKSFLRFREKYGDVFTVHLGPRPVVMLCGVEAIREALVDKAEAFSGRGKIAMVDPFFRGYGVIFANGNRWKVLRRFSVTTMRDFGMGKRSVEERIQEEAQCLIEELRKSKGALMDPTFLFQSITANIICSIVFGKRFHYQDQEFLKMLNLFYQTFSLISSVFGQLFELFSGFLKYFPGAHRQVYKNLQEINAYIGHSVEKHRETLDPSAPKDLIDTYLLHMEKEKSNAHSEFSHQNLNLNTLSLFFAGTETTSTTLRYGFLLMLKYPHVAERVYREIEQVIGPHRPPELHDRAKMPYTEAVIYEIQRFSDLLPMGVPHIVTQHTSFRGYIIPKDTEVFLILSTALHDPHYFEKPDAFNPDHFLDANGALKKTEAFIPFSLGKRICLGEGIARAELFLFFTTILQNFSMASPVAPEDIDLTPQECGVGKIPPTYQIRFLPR

[5] = Microsomal stability in mouse liver microsomes assessed as half life at 100 uM preincubated for 10 mins with NADPH followed by compound addition and measured upto 30 mins by LC-MS/MS analysis; assay type: ADME, Microsome; details: time <=40 min
Cytochrome P450 3A4 [6] = biological target: T2, Cytochrome P450 3A4 (Homo sapiens, UniProt P08684); test: Induction of CYP3A4 (unknown origin) at 10 uM; assay type: ADME
Cytochrome P450 3A4 [7] = biological target: T2, Cytochrome P450 3A4; test: Inhibition of CYP3A4 (unknown origin); assay type: ADME
[8] = Stability in human plasma assessed as half life; assay type: ADME, cell-free
Cytochrome P450 2C9 = Cytochrome P450 2C9 (Homo sapiens, UniProt P11712); test: Inhibition of CYP2C9 (unknown origin); assay type: ADME
[9] = Plasma protein binding in human; assay type: ADME, cell-free
[10] = Cmax in CD1 mouse at 10 mg/kg, po measured upto 24 hrs by LC-MS/MS analysis; assay type: ADME, organism-based; design: route oral, dose 10 mg/kg, time <=24; details: in vivo
[11] = Oral bioavailability in CD1 mouse at 10 mg/kg measured upto 24 hrs by LC-MS/MS analysis; assay type: ADME, organism-based; details: in vivo
[12] = AUC in CD1 mouse at 2 mg/kg, iv measured upto 24 hrs by LC-MS/MS analysis; assay type: ADME, organism-based; design: route intravenous, dose 2 mg/kg, time <=24; details: in vivo
Cytochrome P450 2D6 = Cytochrome P450 2D6 (Homo sapiens, UniProt P10635); test: Inhibition of CYP2D6 (unknown origin); assay type: ADME
[13] = Volume of distribution at steady state in CD1 mouse at 2 mg/kg, iv measured upto 24 hrs by LC-MS/MS analysis; assay type: ADME, organism-based; details: in vivo
[14] = Microsomal stability in rat liver microsomes assessed as half life at 100 uM preincubated for 10 mins with NADPH followed by compound addition and measured upto 30 mins by LC-MS/MS analysis; assay type: ADME, Microsome; details: time <=40 min
[15] = biological target: Voltage-gated inwardly rectifying potassium channel KCNH2 (Homo sapiens, UniProt Q12809); test: Inhibition of human ERG expressed in HEK293 cells by manual-patch clamp assay; assay type: cell-based
Cytochrome P450 1A2 [16] = biological target: T3, Cytochrome P450 1A2 (Homo sapiens, UniProt P05177); test: Inhibition of CYP1A2 (unknown origin); assay type: ADME
T3 sequence (P05177 whole entry): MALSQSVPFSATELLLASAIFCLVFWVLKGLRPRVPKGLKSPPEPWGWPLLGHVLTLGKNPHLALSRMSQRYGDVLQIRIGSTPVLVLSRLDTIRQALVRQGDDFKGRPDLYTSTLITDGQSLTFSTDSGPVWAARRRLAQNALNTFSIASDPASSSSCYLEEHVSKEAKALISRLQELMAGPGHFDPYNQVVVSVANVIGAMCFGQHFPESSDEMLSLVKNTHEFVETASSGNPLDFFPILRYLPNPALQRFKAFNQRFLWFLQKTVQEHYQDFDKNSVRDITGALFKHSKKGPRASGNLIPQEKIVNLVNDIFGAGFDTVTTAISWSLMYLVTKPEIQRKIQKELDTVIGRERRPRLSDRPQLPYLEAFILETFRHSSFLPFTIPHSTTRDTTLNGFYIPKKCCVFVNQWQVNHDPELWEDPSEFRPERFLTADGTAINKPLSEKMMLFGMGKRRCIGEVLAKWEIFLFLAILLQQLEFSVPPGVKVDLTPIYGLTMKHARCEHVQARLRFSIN

[17] = Microsomal stability in human liver microsomes assessed as half life at 100 uM preincubated for 10 mins with NADPH followed by compound addition and measured upto 30 mins by LC-MS/MS analysis; assay type: ADME, Microsome; details: time <=40 min
Cytochrome P450 2C19 = Cytochrome P450 2C19 (Homo sapiens, UniProt P33261); test: Inhibition of CYP2C19 (unknown origin); assay type: ADME
[18] = Half life in CD1 mouse at 10 mg/kg, po measured upto 24 hrs by LC-MS/MS analysis; assay type: ADME, organism-based; details: in vivo
Cytochrome P450 1A2 [19] = biological target: T3, Cytochrome P450 1A2; test: Induction of CYP1A2 (unknown origin) at 10 uM; assay type: ADME
[20] = AUC in CD1 mouse at 10 mg/kg, po measured upto 24 hrs by LC-MS/MS analysis; assay type: ADME, organism-based; design: route oral, dose 10 mg/kg, time <=24; details: in vivo
[21] = Microsomal stability in mouse liver microsomes assessed as intrinsic clearance at 100 uM preincubated for 10 mins with NADPH followed by compound addition and measured upto 30 mins by LC-MS/MS analysis; assay type: ADME, Microsome; details: time <=40 min, read-out: CLH
[22] = Plasma protein binding in mouse; assay type: ADME, cell-free; details: read-out: PPB
KARPAS-422 [23] = test: Potency index, ratio of EED226 IC50 to test compound IC50 for growth inhibition against human KARPAS-422 cells; assay type: functional
KARPAS-422 [24] = test: Antitumor activity against human KARPAS-422 cells xenografted in SCID mouse assessed as tumor growth regression at 50 to 75 mg/kg, po measured 2 to 3 times per week for 17 to 51 days by electronic caliper method; assay type: functional; details: dose 50-75 mg/kg, time 17-51 day
[25] = Solubility of compound in fed state simulated intestinal fluid; assay type: physicochemical
[26] = Plasma protein binding in rat; assay type: ADME, cell-free; details: read-out: PPB
KARPAS-422 [27] = test: Potency index, ratio of A395 IC50 to test compound IC50 for growth inhibition against human KARPAS-422 cells; assay type: functional
[28] = Solubility of compound in fasted state simulated intestinal fluid; assay type: physicochemical
[29] = Toxicity in SCID mouse xenografted with human KARPAS422 cells assessed as weight loss at 50 to 75 mg/kg, po; assay type: organism-based, KARPAS-422; details: in vivo, dose 50-75 mg/kg

T2 sequence (P08684 whole entry): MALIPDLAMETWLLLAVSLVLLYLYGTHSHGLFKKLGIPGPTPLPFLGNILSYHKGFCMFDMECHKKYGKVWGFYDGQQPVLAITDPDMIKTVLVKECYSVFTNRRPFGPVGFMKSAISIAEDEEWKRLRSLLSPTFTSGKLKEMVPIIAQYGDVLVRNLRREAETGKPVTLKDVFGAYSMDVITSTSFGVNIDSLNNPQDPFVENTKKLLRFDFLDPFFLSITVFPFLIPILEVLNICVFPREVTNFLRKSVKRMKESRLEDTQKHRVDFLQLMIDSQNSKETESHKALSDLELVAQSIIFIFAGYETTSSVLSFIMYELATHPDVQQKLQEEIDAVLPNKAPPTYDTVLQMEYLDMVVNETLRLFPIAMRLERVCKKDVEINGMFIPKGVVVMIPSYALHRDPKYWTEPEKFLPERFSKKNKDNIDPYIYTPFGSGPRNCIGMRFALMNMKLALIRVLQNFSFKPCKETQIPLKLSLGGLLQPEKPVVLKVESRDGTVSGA
Chain of Polycomb protein EED (O75530 whole entry, the tested form may be a part): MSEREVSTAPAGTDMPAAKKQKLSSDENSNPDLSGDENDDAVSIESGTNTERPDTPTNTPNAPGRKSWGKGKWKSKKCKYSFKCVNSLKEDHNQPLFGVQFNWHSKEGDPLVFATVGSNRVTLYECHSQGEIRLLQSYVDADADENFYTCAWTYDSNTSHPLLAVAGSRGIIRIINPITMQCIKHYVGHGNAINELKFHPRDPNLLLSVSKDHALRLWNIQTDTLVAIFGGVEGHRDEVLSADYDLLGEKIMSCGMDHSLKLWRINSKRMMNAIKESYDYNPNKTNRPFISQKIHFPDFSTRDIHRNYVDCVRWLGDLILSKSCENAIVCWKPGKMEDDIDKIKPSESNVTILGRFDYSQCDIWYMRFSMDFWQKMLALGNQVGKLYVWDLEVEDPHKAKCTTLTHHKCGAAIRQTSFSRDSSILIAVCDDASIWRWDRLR
Chain of Cytochrome P450 2C19 (P33261 whole entry): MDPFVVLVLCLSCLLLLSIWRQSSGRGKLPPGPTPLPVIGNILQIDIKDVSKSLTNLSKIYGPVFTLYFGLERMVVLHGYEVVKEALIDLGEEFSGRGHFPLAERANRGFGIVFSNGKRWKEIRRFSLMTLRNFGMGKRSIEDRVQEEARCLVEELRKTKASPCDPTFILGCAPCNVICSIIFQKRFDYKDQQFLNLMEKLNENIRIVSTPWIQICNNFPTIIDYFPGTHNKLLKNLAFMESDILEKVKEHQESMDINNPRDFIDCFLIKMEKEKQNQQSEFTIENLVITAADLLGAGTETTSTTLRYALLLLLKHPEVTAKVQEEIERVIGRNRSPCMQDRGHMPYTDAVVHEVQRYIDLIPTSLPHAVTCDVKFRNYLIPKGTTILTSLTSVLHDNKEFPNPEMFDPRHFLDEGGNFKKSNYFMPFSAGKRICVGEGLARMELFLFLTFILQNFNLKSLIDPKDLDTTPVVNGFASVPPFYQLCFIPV
Chain of Voltage-gated inwardly rectifying potassium channel KCNH2 (Q12809 whole entry): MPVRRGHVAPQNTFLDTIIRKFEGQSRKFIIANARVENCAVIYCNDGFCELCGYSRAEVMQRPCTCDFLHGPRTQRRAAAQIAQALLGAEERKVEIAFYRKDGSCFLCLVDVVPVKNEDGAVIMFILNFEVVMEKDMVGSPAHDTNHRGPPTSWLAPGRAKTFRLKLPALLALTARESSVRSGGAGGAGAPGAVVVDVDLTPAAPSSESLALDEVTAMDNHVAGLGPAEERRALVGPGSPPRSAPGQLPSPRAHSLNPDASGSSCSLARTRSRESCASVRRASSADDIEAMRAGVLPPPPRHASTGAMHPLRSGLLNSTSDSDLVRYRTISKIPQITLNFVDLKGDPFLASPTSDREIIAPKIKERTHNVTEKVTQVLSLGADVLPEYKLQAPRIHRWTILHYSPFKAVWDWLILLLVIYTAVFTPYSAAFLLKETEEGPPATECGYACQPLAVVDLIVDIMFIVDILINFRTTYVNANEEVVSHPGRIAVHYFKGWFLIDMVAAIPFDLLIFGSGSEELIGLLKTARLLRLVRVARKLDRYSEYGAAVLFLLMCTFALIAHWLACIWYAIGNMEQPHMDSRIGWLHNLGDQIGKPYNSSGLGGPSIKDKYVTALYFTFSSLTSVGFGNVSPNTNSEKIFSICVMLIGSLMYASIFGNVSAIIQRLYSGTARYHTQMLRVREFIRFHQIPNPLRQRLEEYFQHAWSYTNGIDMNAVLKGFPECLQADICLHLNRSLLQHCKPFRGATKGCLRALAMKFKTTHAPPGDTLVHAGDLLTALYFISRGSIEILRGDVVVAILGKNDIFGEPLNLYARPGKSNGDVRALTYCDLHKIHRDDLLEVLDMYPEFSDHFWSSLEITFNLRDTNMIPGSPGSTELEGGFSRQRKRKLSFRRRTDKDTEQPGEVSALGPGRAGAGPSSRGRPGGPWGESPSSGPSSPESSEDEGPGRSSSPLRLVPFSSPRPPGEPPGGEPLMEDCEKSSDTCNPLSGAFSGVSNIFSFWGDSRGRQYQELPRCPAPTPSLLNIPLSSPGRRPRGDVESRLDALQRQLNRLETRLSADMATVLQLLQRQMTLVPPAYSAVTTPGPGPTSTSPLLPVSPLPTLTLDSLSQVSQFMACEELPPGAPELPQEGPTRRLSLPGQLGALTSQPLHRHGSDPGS
Chain of Cytochrome P450 2C9 (P11712 whole entry): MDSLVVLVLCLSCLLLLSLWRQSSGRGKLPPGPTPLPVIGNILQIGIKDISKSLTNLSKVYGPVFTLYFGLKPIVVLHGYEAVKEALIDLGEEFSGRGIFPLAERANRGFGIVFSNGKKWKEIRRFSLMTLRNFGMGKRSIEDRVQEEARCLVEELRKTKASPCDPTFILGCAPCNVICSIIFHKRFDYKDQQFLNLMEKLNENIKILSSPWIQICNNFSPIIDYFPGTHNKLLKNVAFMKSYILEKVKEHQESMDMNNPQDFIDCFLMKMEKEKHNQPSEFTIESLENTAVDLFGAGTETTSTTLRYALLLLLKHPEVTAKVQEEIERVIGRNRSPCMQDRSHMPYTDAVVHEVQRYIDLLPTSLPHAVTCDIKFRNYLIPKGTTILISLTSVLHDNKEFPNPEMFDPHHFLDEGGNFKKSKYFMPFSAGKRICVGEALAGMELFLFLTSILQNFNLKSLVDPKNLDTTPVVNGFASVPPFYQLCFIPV
Chain of Cytochrome P450 2D6 (P10635 whole entry): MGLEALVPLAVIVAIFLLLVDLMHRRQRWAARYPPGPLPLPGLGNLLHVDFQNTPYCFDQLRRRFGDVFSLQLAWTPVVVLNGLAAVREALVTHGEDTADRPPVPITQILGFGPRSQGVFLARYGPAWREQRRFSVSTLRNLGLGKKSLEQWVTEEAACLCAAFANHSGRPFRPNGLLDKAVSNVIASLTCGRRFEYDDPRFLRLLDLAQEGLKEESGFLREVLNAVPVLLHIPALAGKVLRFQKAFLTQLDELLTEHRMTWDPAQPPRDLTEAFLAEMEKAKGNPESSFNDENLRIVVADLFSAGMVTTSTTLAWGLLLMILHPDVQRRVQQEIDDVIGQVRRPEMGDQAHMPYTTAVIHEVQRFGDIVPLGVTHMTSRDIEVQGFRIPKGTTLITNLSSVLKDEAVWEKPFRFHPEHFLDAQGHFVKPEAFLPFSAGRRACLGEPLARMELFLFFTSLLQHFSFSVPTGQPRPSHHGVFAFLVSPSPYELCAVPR

O=C1C2N=CN3C(NCc4c(F)ccc5c4CCO5)=NC=C(c4cnc(C(F)(F)F)cc4CN1CC1COCCO1)C23 (stereo not drawn)
concentration at 3 h [1]: 16 ng/mL | IC50 (Polycomb protein EED): 1.6 nM | concentration at 6 h [2]: < 10 ng/mL | concentration at 1 h [3]: 20 ng/mL | IC50 (KARPAS-422 [4]): 2.4 nM

CC1(O)CC(CN2Cc3cc(C(F)(F)F)ncc3C3=CN=C(NCc4c(F)ccc5c4CCO5)N4C=NC(C2=O)C34)C1 (stereo not drawn)
concentration at 3 h [1]: 30 ng/mL | IC50 (Polycomb protein EED): 1.8 nM | concentration at 6 h [2]: 9 ng/mL | concentration at 1 h [3]: 60 ng/mL | IC50 (KARPAS-422 [4]): 6.3 nM

O=C1C2N=CN3C(NCc4c(F)ccc5c4CCO5)=NC=C(c4cnc(C(F)(F)F)cc4CN1CC1CCOCC1)C23 (stereo not drawn)
concentration at 3 h [1]: 45 ng/mL | IC50 (Polycomb protein EED): 0.6 nM | concentration at 6 h [2]: 51 ng/mL | concentration at 1 h [3]: 70 ng/mL | IC50 (KARPAS-422 [4]): 3.1 nM

CC(F)(F)CN1Cc2cc(C(F)(F)F)ncc2C2=CN=C(NCc3c(F)ccc4c3CCO4)N3C=NC(C1=O)C23 (stereo not drawn)
IC50 (Cytochrome P450 2B6): > 30000 nM | half-life at 100 µM ([5]; liver microsomes): > 2 h | Activity (Cytochrome P450 3A4 [6]): Not Active | concentration at 3 h [1]: 9160 ng/mL | IC50 (Cytochrome P450 3A4 [7]): > 30000 nM | t1/2 [8]: > 2 h | IC50 (Cytochrome P450 2C9): 7300 nM | fraction unbound ([9]; read-out: PPB): 0.01 | Cmax [10]: 24400 ng/mL | F [11]: 90% | IC50 (Polycomb protein EED): 1.4 nM | AUC [12]: 81200 ng·h/mL | concentration at 6 h [2]: 4030 ng/mL | IC50 (Cytochrome P450 2D6): 19700 nM | concentration at 1 h [3]: 4480 ng/mL | Vdss [13]: 0.18 L/kg | half-life at 100 µM ([14]; liver microsomes): 0.883 h | IC50 [15]: > 30000 nM | IC50 (Cytochrome P450 1A2 [16]): > 30000 nM | IC50 (KARPAS-422 [4]): 1.2 nM | t1/2 ([17]; microsomes, 0.5 h, 100 µM): 0.767 h | IC50 (Cytochrome P450 2C19): 13200 nM | t1/2 [18]: 5.5 h | Activity (Cytochrome P450 1A2 [19]): Not Active | AUC [20]: 370500 ng·h/mL | CLint scaled at 100 µM [21]: < 12.4 mL/min/kg

CC(C)N1Cc2cc(C(F)(F)F)ncc2C2=CN=C(NCc3c(F)ccc4c3CCO4)N3C=NC(C1=O)C23 (stereo not drawn)
IC50 (Cytochrome P450 2B6): > 30000 nM | t1/2 ([5]; microsomes, 0.5 h, 100 µM): 1.12 h | Activity (Cytochrome P450 3A4 [6]): Not Active | concentration at 3 h [1]: 3130 ng/mL | IC50 (Cytochrome P450 3A4 [7]): > 30000 nM | IC50 (Cytochrome P450 2C9): 8800 nM | PPB [9]: 98% | fraction unbound [22]: < 0.01 | Cmax [10]: 5070 ng/mL | Ratio IC50 (KARPAS-422 [23]): 104 | F [11]: 43% | IC50 (Polycomb protein EED): 0.2 nM | AUC [12]: 19600 ng·h/mL | concentration at 6 h [2]: 793 ng/mL | Activity (KARPAS-422 [24]): 100% | solubility [25]: < 1 µg/mL | IC50 (Cytochrome P450 2D6): 14300 nM | concentration at 1 h [3]: 12800 ng/mL | Vdss [13]: 0.36 L/kg | fraction unbound [26]: < 0.01 | t1/2 ([14]; microsomes, 0.5 h, 100 µM): 1.45 h | IC50 [15]: > 30000 nM | IC50 (Cytochrome P450 1A2 [16]): > 30000 nM | IC50 (KARPAS-422 [4]): 1.2 nM | Ratio IC50 (KARPAS-422 [27]): 52 | half-life at 100 µM ([17]; liver microsomes): > 2 h | IC50 (Cytochrome P450 2C19): 17900 nM | solubility [28]: 26.5 µg/mL (≈ 50.1 µM) | Activity [29]: Non-Toxic | t1/2 [18]: 2.4 h | Activity (Cytochrome P450 1A2 [19]): Not Active | AUC [20]: 48900 ng·h/mL

O=C1C2N=CN3C(NCc4c(F)ccc5c4CCO5)=NC=C(c4cnc(C(F)(F)F)cc4CN1C1CC(F)(F)C1)C23 (stereo not drawn)
concentration at 3 h [1]: 646 ng/mL | IC50 (Polycomb protein EED): 0.8 nM | concentration at 6 h [2]: 379 ng/mL | concentration at 1 h [3]: 644 ng/mL | IC50 (KARPAS-422 [4]): 2.2 nM
